Results as given in publication PMC5831858, “Pharmacological characterisation of CR6086, a potent prostaglandin E2 receptor 4 antagonist, as a new potential disease-modifying anti-rheumatic drug” (Arthritis Research & Therapy, 2018).

Columns and labels:
IL-23 release = IL-23 release from human dendritic cells; assay type: cell-based; conditions: Dendritic cell, at 10 μM, read-out: inhibition of IL-23 release (plateau)
Experimental: PBMCs were purified using Histopaque (Sigma-Aldrich, St. Louis, MO, USA). CD14^+ cells were positively selected in a magnetic field (magnetic-activated cell sorting [MACS]; Miltenyi Biotec, Bergisch Gladbach, Germany). Purified CD14^+ cells were subsequently cultured for 7 days in differentiation medium (RPMI 1640 + 10% FBS, granulocyte-macrophage colony-stimulating factor 50 ng/ml and IL-4 100 ng/ml) and then stimulated with LPS (10 ng/ml), R848 2.5 μg/ml and PGE2 10 nM for 24 h in the presence of CR6086 (0.01–30 μM) or naproxen (1–30 μM). IL-23 release was measured by enzyme-linked immunosorbent assay (ELISA) (R&D Systems, Minneapolis, MN, USA).

IL-17 release = IL-17 release from human Th17 cells; assay type: cell-based; conditions: 1–10 μM
Experimental: PBMCs were purified using Histopaque. CD4^+CD45^+ naive T cells were indirectly selected in a magnetic field (MACS; Miltenyi Biotec). Purified CD4^+ cells were subsequently cultured for 7 days in differentiation medium (RPMI 1640 + FBS 10%, IL-6 30 ng/ml, transforming growth factor [TGF]-β 2.25 ng/ml, IL-23 30 ng/ml, IL-1β 20 ng/ml, anti-interferon (IFN)-γ 1 ng/ml and anti-IL-4 2.5 ng/ml). Th17 cell expansion was stimulated by addition of anti-CD3/[…]anti-CD28 beads to the medium with a cell-to-beads ratio of 1:2. Th17 cells were stimulated with IL-6 30 ng/ml, TGF-β 2.25 ng/ml, IL-23 30 ng/ml, IL-1β 20 ng/ml and PGE2 10 nM for 48 h in the presence of CR6086 (0.03–10 μM) or naproxen (1–10 μM). IL-17 release was measured by ELISA (Abcam, Cambridge, UK).

[1] = test system: arthritic mice (collagen-induced arthritis model); assay: CIA in mice, first study: clinical score and paw swelling; assay type: in vivo, mouse; conditions: 10 days; CR6086 30 and 60 mg/kg, naproxen 60 mg/kg oral once daily; etanercept 10 mg/kg i.p. every other day
Experimental: Male DBA/1 mice were immunised by intradermal injection at the base of the tail with an emulsion of 200 μg of bCII in CFA containing 3 mg/ml Mycobacterium tuberculosis. Non-immunised mice served as the negative control of disease. Animals were monitored by visual inspection for appearance of peripheral oedema. […] Upon onset, animals were recruited and randomised. Recruitment was given a cut-off at day 40. Upon recruitment, arthritis clinical score was assigned, and oedema was measured via caliper.
(§1) In a first study, mice were randomised into the following treatment groups: vehicle, 30 mg/kg CR6086, 60 mg/kg CR6086, 60 mg/kg naproxen and 10 mg/kg etanercept. Animals received the test drugs for 10 days. CR6086 and naproxen were administered orally once daily, whereas etanercept was administered intraperitoneally every other day. Animals treated with vehicle, 60 mg/kg CR6086, naproxen and etanercept were additionally analysed for the proportion of populations of Th17 cells, Th1 cells, regulatory T cells, B cells, macrophages, neutrophils and dendritic cells by fluorescence-activated cell sorting (FACS) after collection of blood, draining lymph nodes and joints.
Oedema measurement was performed every day before treatment, and all animals were blindly scored for clinical signs of arthritis as follows: 0 = normal; 1 = slight swelling and/or erythema; 2 = pronounced oedematous swelling; and 3 = ankyloses and severe swelling. A score of 0.5 was given to swollen toe/toes or when inflammation was localised to one part of the foot. Each limb was measured separately, with a final score based on the sum of the scores from all four paws.

[2] = test system: arthritic mice (collagen-induced arthritis model); assay: FACS analysis of cell populations in the joint, CIA mice; assay type: in vivo, mouse; conditions: CR6086 60 mg/kg, naproxen 60 mg/kg, etanercept 10 mg/kg, mean ± SEM
Experimental: as §1

[3] = test system: arthritic mice (collagen-induced arthritis model); assay: CIA in mice, second study: serum cytokines and signal limb histology; assay type: in vivo, mouse; conditions: 60 mg/kg oral daily, 10 days; mean ± SEM
mouse arthritis models = test system: mouse arthritis models; design: method as in FDA pharmacological review; conditions: ref FDA pharmacological review; cited from earlier work
rat arthritis models = test system: rat arthritis models; design: method as in FDA pharmacological review; conditions: ref FDA pharmacological review; cited from earlier work

Compound	inhibition at 10 µM (IL-23 release) [%]	effect on IL-17 release (IL-17 release)	effect on disease parameters (visual clinical score, paw swelling) vs vehicle [1]	B cells, Percentage of total cells [2] [%]	Dendritic cells, Percentage of total cells [2] [%]	Macrophages, Percentage of total cells [2] [%]	Neutrophils, Percentage of total cells [2] [%]	Th1, Percentage of total cells [2] [%]	Th17, Percentage of total cells [2] [%]	Treg, Percentage of total cells [2] [%]	IFNγ serum concentration [3] [pg/mL]	IL-10 serum concentration [3] [pg/mL]	IL-17 serum concentration [3] [pg/mL]	TNFα serum concentration [3] [pg/mL]	potency in mouse arthritis models (mouse arthritis models) [mg/kg]	potency in rat arthritis models (rat arthritis models) [mg/kg]
COc1ccc2cc([C@H](C)C(=O)O)ccc2c1 [Naproxen, naproxen, reference compound]	~50	inactive	ineffective	5.77 ± 1.16	1.96 ± 0.48	16.31 ± 4.44	16.47 ± 4.48	0.35 ± 0.07	0.21 ± 0.08	0.63 ± 0.22	3.48 ± 1.10	16.21 ± 2.23	2.58 ± 0.43	43.01 ± 4.55		
C[C@@H]1CCN(C(=O)CC#N)C[C@@H]1N(C)c1ncnc2[nH]ccc12 [tofacitinib]															50	6.2
